“Also recorded” adds a separate entry of the source. Counter-ions that a name gives are not always drawn.
Legend:
[1] = MMF exposure in plasma and tissues after DMF PO or IV once daily for 5 days (LC-MS/MS); assay type: in vivo, Sprague-Dawley rats
Procedure: (§1) On Day 5 of the study 3 time points were evaluated: 10 minutes, 2 hours, and 6 hours after dosing, as illustrated in the timeline. At each time point, 5 animals from each group were sacrificed. At the 2 and 6 hour time points, the tissue samples from groups E, F, I, and J from each animal were split, with half of the tissue being processed for MMF exposure, and half processed for qRT-PCR. Note vehicle groups (C, D, G, and H) were not processed for MMF measurement and only used for qRT-PCR.
At 10 minutes, 2 and 6 hours, plasma and tissues (forebrain, cerebellum, jejunum, kidney and spleen) from cohorts of animals (Groups A, B, E, F, I, J) were collected to measure the concentration of MMF in the sample. MMF was quantitated using a non-GLP, but validated LC/MS/MS assay. Statistical comparisons were performed using the non-parametric Mann-Whitney U test.
As mentioned previously, Sprague-Dawley rats were sacrificed and terminal plasma and tissue samples were collected 10 minutes, 2 and 6 hours after dosing and MMF exposure in plasma, brain, cerebellum, jejunum and kidney was determined as follows. Tissues were snap frozen on dry ice after dissection. Immediately prior to blood collection, 4 μL of 250 mg/mL stock mixture of sodium fluoride (NaF) in water was added to each 100 μL of blood collected in a lithium heparin tube. The stock NaF mixture was prepared on the day of use and kept as a homogenous suspension through continuous stirring on a stir plate. Whole blood was added to the tube, and then samples were inverted several times and stored on wet ice (2° C. to 8° C.). All samples were centrifuged within 30 minutes of collection at 4° C. for 15 minutes at 1500×g (4200 RPM). Plasma was then transferred into pre-chilled tubes, immediately frozen on dry ice and maintained frozen (≤−80° C.) until analysis.
Aliquots (50 μL) of either plasma or tissue homogenate samples were extracted by protein precipitation with acetonitrile containing methylethyl fumarate or −4C13-MMF as the internal standard. For tissue samples, aliquots of homogenization solution (‘blank’ plasma with 12.5 mg/mL of NaF) were added to the tissue samples. The tissue samples were homogenized at 6.5 m/s for 60 seconds on a Fast Prep Tissue Homogenizer prior to protein precipitation. Concentrations of MMF in plasma, forebrain, cerebellum, jejunum, spleen and kidney samples were determined using qualified LC-MS/MS assays in the respective matrices. Data collection and integration was accomplished using an API 5500 triple quadrupole mass spectrometer with a turbo ion spray interface (AB Sciex, Foster City, Calif.), and Analyst software (version 1.6.1). The peak area ratios of MMF relative to its internal standard were used to construct a standard curve using a quadratic regression with a 1/x^2 weighting. The lower limit of quantitation (LLOQ) was 10 ng/mL for all four assays. The performances of the assays were monitored by the precision and accuracy of the standards and quality control samples.

[2] = test system: prototypical Nrf2 response genes (Akr1b8, Gclc, Hmox1, Nqo1, Txnrd1, Osgin1); assay: qRT-PCR of Nrf2 response genes in tissues after DMF PO or IV; assay type: in vivo, Sprague-Dawley rats; settings: for Nrf2 genes significantly modulated, forebrain / Nrf2 genes significantly modulated, jejunum / Nrf2 genes significantly modulated, kidney / Nrf2 genes significantly modulated, cerebellum / Nrf2 genes significantly modulated, spleen: 2 and 6 hours, vs vehicle
Procedure: as §1
Two and 6 hours after dosing, cohorts of animals from Groups C, D, E and F and G, H, I and J, respectively, were sacrificed and tissues (forebrain, cerebellum, jejunum, kidney, and spleen) were collected for RNA analysis by qRT-PCR for expression of prototypical Nrf2 response genes.
For RNA preparation, frozen tissues were placed in 2 mL RNAse-free 96-well blocks with 1.5 mL QIAzol Lysis Reagent (QIAgen) and a 3.2 mm stainless steel bead (BioSpec Products, Bartlesville, Okla.). Tissues were disrupted for four cycles of 45 seconds in a Mini-Beadbeater (Biospec Products). RNA was extracted in chloroform and the aqueous phase was mixed with an equal volume of 70% ethanol. Extracted RNA was applied to RNeasy 96 plates and purified by the spin method according to the manufacturer's protocol (RNeasy 96 Universal Tissue Protocol, QIAgen, Hilden Germany).
Samples were reverse-transcribed into cDNA according to the manufacturer's protocols (Life Technologies, Carlsbad, Calif.) and analyzed by real-time polymerase chain reaction (qPCR). Rat target gene primers and 6-FAM™ dye-labeled TaqMan® MGB™ probes (Life Technologies) were used. Reactions containing 100 ng of cDNA, 900 nM of each primer, and 250 nM TaqMan probes were cycled on a QuantStudio 12 k-flex system (Life Technologies) once for 10 minutes at 95° C., followed by 40 cycles of 95° C. for 10 seconds and 60° C. for 1 minute. All samples were measured in triplicate with Gapdh as a normalizing gene. Taqman primer/probe sets from Life Technologies included: Akr1b8 (Rn00756513_m1); Gclc (Rn00689046_m1); Hmox1 (Rn01536933_m1); Nqo1 (Rn00566528_m1); Txnrd1 (Rn01503798_m1); Osgin1 (Rn00593303_m1) and Gapdh (Rn01775763_g1). Final analysis was performed using the comparative CT method to calculate fold changes and samples were normalized relative to vehicle controls at each time point. In all graphs, the mean fold-change (±standard deviation) is depicted.

## COC(=O)/C=C/C(=O)OC [DMF, dimethyl fumarate]
[1]; 6 hours after IV or PO DMF dosing
  MMF level in any tissue: no detectable MMF in any tissue
[1]; 6 hours after dosing, PO or IV
  MMF level in forebrain or cerebellum: undetectable
[1]; DMF IV 30 mg/kg, 2 hours
  MMF level in any tissue: no MMF was detectable in any tissue
  MMF level in brain: below the level of quantitation
[1]; DMF IV 30 mg/kg, 6 hours
  MMF level in plasma: not detectable
[1]; DMF PO 100 mg/kg, 2 hours
  MMF levels in kidney, jejunum and spleen: markedly decreased, but detectable
[1]; PO 100 mg/kg vs IV 30 mg/kg, 10 minutes
  MMF levels in jejunum, kidney and spleen, PO versus IV: these differences were not significant
[2]; DMF IV 30 mg/kg
  Nrf2 genes significantly modulated, forebrain: significant modulation of Nqo1, Osgin1, Akr1b8, and Hmox1 at both 2 and 6 hours
  Nrf2 genes significantly modulated, jejunum: significant increases were observed for Nqo1 and Hmox1 at 6 hours, and in Osgin1 expression at 2 hours
  Nrf2 genes significantly modulated, kidney: significant modulation of Nqo1 and Txnrd1 at 2 and 6 hours, and Hmox1 only at 2 hours
[2]; DMF IV 30 mg/kg, 30 mg/kg
  Nrf2 genes significantly modulated, cerebellum: significant modulation was observed for Nqo1, Osgin1, Akr1b8, and Hmox1 at both 2 and 6 hours; also recorded: significant increase in the transcriptional responses of Gclc and Txnrd1 in the cerebellum, but only at the later 6-hour time point
  Nrf2 genes significantly modulated, spleen: significant transcriptional increases were noted for Osgin1 at both 2 and 6 hour time points; also recorded: significant changes in Akr1b8 and Txnrd1 were observed only at the 2 hour time point; also recorded: A significant change in Nqo1 was also found 6 hours after DMF IV dosing
[2]; DMF PO 100 mg/kg or IV 30 mg/kg
  Hmox1 expression in spleen: No changes were observed
[2]; DMF PO 100 mg/kg
  Nrf2 genes significantly modulated, cerebellum: significant modulation of 3 genes in cerebellar tissue: Osgin1 at 2 and 6 hours, Akr1b8 at 2 hours, and Hmox1 at the 6 hour time point
  Nrf2 genes significantly modulated, forebrain: modulation of only two genes: Osgin1 at 2 and 6 hours and Akr1b8 only at 2 hours
  Nrf2 genes significantly modulated, spleen: significant increases in Nqo1, Osgin1, Akr1b8, Gclc, and Txnrd1 at both 2 and 6 hours
[2]; DMF PO 100 mg/kg, 100 mg/kg
  Nrf2 genes significantly modulated, jejunum: significant increases in Osgin1, Akr1b8, and Txnrd1 at both 2 and 6 hours; also recorded: Nqo1 expression was increased after PO DMF dosing only at the 6-hour time point; also recorded: significant increases in Gclc and Hmox1 were observed at the 2-hour time point
  Nrf2 genes significantly modulated, kidney: significant changes at both 2 and 6 hour time points for Nqo1, Hmox1, and Txnrd1; also recorded: Osgin1 was significantly modulated only at the 2 hour time point
[2]; forebrain, kidney and spleen, PO 100 mg/kg and IV 30 mg/kg
  Relationship of MMF exposure (10 minutes) and pharmacodynamic response (2 or 6 hours): clear positive correlation in MMF exposure and pharmacodynamic response

Reference: US20180289655A1, “Methods and Compositions for the Intravenous Administration of Fumarates for the Treatment of Neurological Diseases” (Biogen MA Inc., priority 2015, published 2018)
